# From patent US20230321101A1, “METHODS AND USES OF HALOFUGINONE” (The Regents of the University of California, priority 2020, published 2023)
# “Also recorded” adds a separate entry of the source.
# What was measured:
# SARS-CoV-2 = SARS-CoV-2 infected hamsters, oral halofuginone, lung pathology; assay type: in vivo; conditions: vs PBS
# From the text: FIG. 37A-FIG. 37F: Oral dosing of halofuginone to hamsters infected with SARS-CoV-2 improved hamster lung pathology relative to a control group of hamsters (PBS).
# [1] = tested on: cell surface heparan sulfate of Hep3B cells; assay: Heparan sulfate presentation by anti-HS mAb 10E4 staining of Hep3B cells; assay type: cell-based, human
# HIV-1 = HIV-1 antiviral immunofluorescence assay in HeLa Tzmbl cells; assay type: cell-based; conditions: Human immunodeficiency virus 1, read-out: EC50 HIV-1
# Procedure: Experimental Procedure. The antiviral activity of 8 dilutions of each compound was explored by adding the drug to the assay cells 2 h after infection with the different viruses. Virus and compounds were left on the cells for the entire duration of the experiment (28 h for Zika virus and 24 h for all other viruses). The cytotoxicity of the same range of concentrations of compounds was determined by LDH release assay in the same cell lines.
# Cell plating. Cells were detached and counted following SOP-RA 003 and SOP-RA 004. Count was recorded in the Cell Count Logbook, Volume 1. For each virus four plates were seeded, two for the antiviral assay and two for the cytotoxicity assay. Cells were seeded in 100 μl/well of complete media at the following densities: • Huh7: 8,000 cells/well (Dengue) • SH-SY5Y: 10,000 cells/wells (Zika) • HeLa Tzmbl: 8,000 cells/well (HIV)
# Compounds dilutions. The 22.1 mM stocks were further diluted to 1 mM in DMSO by adding 211 μl of DMSO to 10 μl of compound. Three serial dilutions were prepared in different media for different viruses/cells. For each dilution, drugs were prepared at twice the final concentration in 50 μl volume, because they are diluted to the final concentration by an equal volume of virus or media.
# Infection. Cells were infected in 50 μl of supplemented media/well at the following multiplicity of infection (MOI): • DENV-2, MOI 1 • ZIKV, MOI 5 • HIV, MOI 0.5
# After removing culture media from cells, 50 μl of virus dilution were added to all wells except Column 11 (uninfected control), where the same volume of supplemented media was added. […]
# Infectivity readout. […] The primary antibodies were detected with an Alexa-488 conjugate secondary antibody (Life Technologies, A11001), and nuclei were stained with Hoechst. Images were acquired on a CellInsight CX5 high content platform (Thermo Scientific) using a 4× objective, and percentage infection calculated using CellInsight CX5 software (infected cells/total cells×100).
# Determination of % Inhibition—IF assay. Normalized percentages of inhibition were calculated using the following formula: […]
smiles,measurement,setting,value
O=C(CC1NCCCC1O)Cn1cnc2cc(Br)c(Cl)cc2c1=O (racemic) [halofuginone],"lung fibrosis, blood clotting, and inflammation",SARS-CoV-2; oral 1 mg/kg,"reduced lung fibrosis, blood clotting, and inflammation"
same,extended lung pathology,SARS-CoV-2; oral dosing,significant improvement
same,lung pathology severity,SARS-CoV-2; oral dosing,significant improvement
same,lung weight,SARS-CoV-2; oral dosing,significant improvement
same,macroscopic lung pathology,SARS-CoV-2; oral dosing,significant improvement
same,effect on heparan sulfate presentation (10E4 binding),[1]; listed as Halofuginone,dose-dependently reduced 10E4 binding; also recorded: dose-dependently reduced the presence of cell surface heparan sulfate
same,effect on heparan sulfate presentation (10E4 binding),[1]; listed as halofuginone (MAZ1392),reduced heparan sulfate presentation
same,EC50,HIV-1,23.6 nM
